# Measured values published in patent US20100137313A1 (ASTRAZENECA AB, priority 2008, published 2010).
# Biological target: S. pneumoniae Topoisomerase IV ATPase (ParE) (Streptococcus pneumoniae serotype 4, UniProt Q59961)
# Test: S. pneumoniae Topoisomerase IV ATPase inhibition
# Format: biochemical
# Settings: values marked * are an average of two or more data points; for inhibition at 13 µM: read-out: % Inh (13 μM) of S. pneumoniae Topoisomerase IV ATPase
# How it was run: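 ParE ATPase (1.25 nM) run with 160 μM ATP and 5 μg/ml sheared salmon sperm DNA in Tris pH 8.0, Mg2+, glycerol, DTT, Brij-35. Phosphate released read by malachite green/molybdate absorbance at 650 nm. IC50 from 10 compound concentrations; DMSO (2%) as 0% and EDTA (20 μM) as 100% inhibition.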
# Sequence of S. pneumoniae Topoisomerase IV ATPase (ParE) (Q59961 whole entry): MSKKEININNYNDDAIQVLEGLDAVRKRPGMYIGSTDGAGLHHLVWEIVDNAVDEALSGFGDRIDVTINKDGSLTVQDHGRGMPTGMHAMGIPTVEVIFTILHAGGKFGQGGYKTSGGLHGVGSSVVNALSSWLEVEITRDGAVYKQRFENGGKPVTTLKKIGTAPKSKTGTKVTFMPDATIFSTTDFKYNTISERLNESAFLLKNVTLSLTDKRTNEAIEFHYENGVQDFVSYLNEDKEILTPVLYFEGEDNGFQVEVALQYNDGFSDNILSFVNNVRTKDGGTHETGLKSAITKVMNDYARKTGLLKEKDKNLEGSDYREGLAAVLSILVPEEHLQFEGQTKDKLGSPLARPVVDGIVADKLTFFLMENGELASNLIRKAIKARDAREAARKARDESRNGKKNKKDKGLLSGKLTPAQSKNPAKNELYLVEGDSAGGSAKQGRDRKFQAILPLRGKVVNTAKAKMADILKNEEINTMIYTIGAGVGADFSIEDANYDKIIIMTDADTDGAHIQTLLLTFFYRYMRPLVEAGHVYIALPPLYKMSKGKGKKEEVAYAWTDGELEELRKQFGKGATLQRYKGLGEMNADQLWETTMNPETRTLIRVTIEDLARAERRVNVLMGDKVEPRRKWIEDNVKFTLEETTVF
Structure (SMILES),inhibition at 13 µM [%],% Inh (13 μM) of S. pneumoniae Topoisomerase IV ATPase (13 µM) [%]
"COc1ncc(-c2cnc(Nc3cccc(Cl)c3)nc2-n2nc(C(F)(F)F)cc2C)cc1C(=O)O [Example 743, 5-{2-[(3-chlorophenyl)amino]-4-[5-methyl-3-(trifluoromethyl)-1H-pyrazol-1-yl]pyrimidin-5-yl}-2-methoxypyridine-3-carboxylic acid]",94,
"COCCCNc1nc(Nc2ccc(F)c(Cl)c2)ncc1-c1cncnc1 [Example 75, N^2-(3-chloro-4-fluorophenyl)-N^4-(3-methoxypropyl)-5,5′-bipyrimidin-2,4-diamine]",97.6,
"O=C(O)c1cncc(-c2cnc(Nc3ccc(F)c(Cl)c3)nc2NCc2ccco2)c1 [Example 237, 5-[2-[(3-chloro-4-fluorophenyl)amino]-4-(furan-2-ylmethylamino)pyrimidin-5-yl]pyridine-3-carboxylic acid]",85.4,
"COc1cc(C)cc(Nc2ncc(-c3cc(C(=O)O)c(=O)n(C)c3)c(-n3nc(C(F)(F)F)cc3C)n2)c1 [Example 861, 5-{2-[(3-methoxy-5-methylphenyl)amino]-4-[5-methyl-3-(trifluoromethyl)-1H-pyrazol-1-yl]pyrimidin-5-yl}-1-methyl-2-oxo-1,2-dihydropyridine-3-carboxylic acid]",100,
"CONC(=O)c1cc(-c2cnc(Nc3ccc(F)c(Cl)c3)nc2-n2ccc(C(F)(F)F)n2)cnc1OC [Example 1101, 5-(2-(3-chloro-4-fluorophenylamino)-4-(3-(trifluoromethyl)-1H-pyrazol-1-yl)pyrimidin-5-yl)-N,2-dimethoxynicotinamide]",82,
"Cc1cc(C(F)(F)F)nn1-c1nc(Nc2ccc(F)c(Cl)c2)ncc1-c1cnc(OCCO)c(C(=O)O)c1 [Example 1134, 5-(2-(3-chloro-4-fluorophenylamino)-4-(5-methyl-3-(trifluoromethyl)-1H-pyrazol-1-yl)pyrimidin-5-yl)-2-(2-hydroxyethoxy)nicotinic acid]",100,
"O=C(O)/C=C/c1cccc(-c2cnc(Nc3ccc(F)c(Cl)c3)nc2-n2ccc(C3CC3)n2)c1 [Example 875, (E)-3-(3-(2-(3-chloro-4-fluorophenylamino)-4-(3-cyclopropyl-1H-pyrazol-1-yl)pyrimidin-5-yl)phenyl)acrylic acid]",98,
"COC(=O)CC(=O)c1cncc(-c2cnc(Nc3ccc(F)c(Cl)c3)nc2N2CCOCC2)c1 [Example 1039, Methyl 3-(5-(2-(3-chloro-4-fluorophenylamino)-4-morpholinopyrimidin-5-yl)pyridin-3-yl)-3-oxopropanoate]",90,
"Cc1ccc(F)c(Nc2ncc(-c3cncc(C(=O)O)c3)c(-n3nc(C(F)(F)F)cc3C)n2)c1 [Example 773, 5-{2-[(2-fluoro-5-methylphenyl)-amino]-4-[5-methyl-3-(trifluoromethyl)-1H-pyrazol-1-yl]pyrimidin-5-yl}pyridine-3-carboxylic acid]",55,
"COCCCNc1nc(Nc2ccc(F)c(Cl)c2)ncc1-c1ccc2[nH]c(C(=O)O)cc2c1 [Example 1062, 5-(2-(3-chloro-4-fluorophenylamino)-4-(3-methoxypropylamino)pyrimidin-5-yl)-1H-indole-2-carboxylic acid]",91,
"CN(C)C(=O)N1CCN(c2nc(Nc3ccc(F)c(Cl)c3)ncc2-c2cccc(/C=C/C(=O)O)c2)CC1 [Example 291, (E)-3-(3-(2-(3-chloro-4-fluorophenylamino)-4-(4-(dimethylcarbamoyl)-piperazin-1-yl)pyrimidin-5-yl)phenyl)acrylic acid]",90.1,
"CCCS(=O)(=O)NC(=O)c1cc(-c2cnc(Nc3cc(C)cc(C)c3)nc2-n2nc(C(F)(F)F)cc2C)cnc1OC [Example 825, 5-{2-[(3,5-dimethylphenyl)amino]-4-[5-methyl-3-(trifluoromethyl)-1H-pyrazol-1-yl]pyrimidin-5-yl}-2-methoxy-N-(propylsulfonyl)pyridine-3-carboxamide]",100,
"CC(=O)N1CCN(c2nc(Nc3ccc(F)c(Cl)c3)ncc2-c2cncc(C(=O)O)c2)CC1 [Example 276, 5-(4-(4-acetylpiperazin-1-yl)-2-(3-chloro-4-fluorophenylamino)-pyrimidin-5-yl)nicotinic acid]",80.3,
"NC(=O)c1cccc(Nc2ncc(-c3cccc(/C=C/C(=O)O)c3)c(-n3ccc(C(F)(F)F)n3)n2)c1 [Example 690, (2E)-3-(3-{2-[(3-carbamoylphenyl)amino]-4-[3-(trifluoromethyl)-1H-pyrazol-1-yl]pyrimidin-5-yl}phenyl)prop-2-enoic acid]",100,
"Cc1cc(C(F)(F)F)nn1-c1nc(Nc2ccc(F)c(Cl)c2)ncc1-c1cc(C(=O)O)c(=O)n(C)c1 [Example 1088, 5-(2-(3-chloro-4-fluorophenylamino)-4-(5-methyl-3-(trifluoromethyl)-1H-pyrazol-1-yl)pyrimidin-5-yl)-1-methyl-2-oxo-1,2-dihydrpyridine-3-carboxylic acid]",100,
"Cc1cc(C(F)(F)F)nn1-c1nc(Nc2cccc(F)c2)ncc1-c1cncc(C(=O)O)c1 [Example 642, 5-{2-[(3-fluorophenyl)amino]-4-[5-methyl-3-(trifluoromethyl)-1H-pyrazol-1-yl]pyrimidin-5-yl}pyridine-3-carboxylic acid]",100,
"O=C(O)/C=C/c1cccc(-c2cnc(Nc3ccc4c(c3)CCC4)nc2-n2ccc(C(F)(F)F)n2)c1 [Example 655, (2E)-3-(3-{2-(2,3-dihydro-1H-inden-5-ylamino)-4-[3-(trifluoromethyl)-1H-pyrazol-1-yl]pyrimidin-5-yl}phenyl)prop-2-enoic acid]",89,
"O=C(O)c1cncc(-c2cnc(Nc3ccc(F)c(Cl)c3)nc2N2CCC2)c1 [Example 253, 5-[4-(azetidin-1-yl)-2-[(3-chloro-4-fluorophenyl)amino]-pyrimidin-5-yl]pyridine-3-carboxylic acid]",75.1,
"O=C(O)c1cncc(-c2cnc(Nc3ccc(F)c(Cl)c3)nc2NCCOc2ccccc2)c1 [Example 239, 5-[2-[(3-chloro-4-fluorophenyl)amino]-4-(2-phenoxyethylamino)-pyrimidin-5-yl]pyridine-3-carboxylic acid]",85.1,
"COCCOc1ncc(-c2cnc(Nc3ccc(F)c(Cl)c3)nc2-n2ccc(C(F)(F)F)n2)cc1C(=O)O [Example 1133, 5-(2-(3-chloro-4-fluorophenylamino)-4-(3-(trifluoromethyl)-1H-pyrazol-1-yl)pyrimidin-5-yl)-2-(2-methoxyethoxy)nicotinic acid]",100,
"CCOC(=O)c1cn(CCOC)c2ccc(-c3cnc(Nc4ccc(F)c(Cl)c4)nc3N3CCOCC3)cc2c1=O [Example 175, ethyl 6-(2-(3-chloro-4-fluorophenylamino)-4-morpholinopyrimidin-5-yl)-1-(2-methoxyethyl)-4-oxo-1,4-dihydroquinoline-3-carboxylate]",80,
"COc1ccc(C(=O)O)cc1-c1cnc(Nc2ccc(F)c(Cl)c2)nc1-n1ccc(C(F)(F)F)n1 [Example 1128, 3-(2-(3-chloro-4-fluorophenylamino)-4-(3-(trifluoromethyl)-1H-pyrazol-1-yl)pyrimidin-5-yl)-4-methoxybenzoic acid]",,67
"Cc1cc(C(F)(F)F)nn1-c1nc(Nc2ccc(F)c(Cl)c2)ncc1-c1cnc(OC2CCN(C)C2)c(C(=O)O)c1 (stereo not drawn) [Example 787, 5-{2-[(3-chloro-4-fluorophenyl)amino]-4-[5-methyl-3-(trifluoromethyl)-1H-pyrazol-1-yl]pyrimidin-5-yl}-2-[(1-methylpyrrolidin-3-yl)oxy]pyridine-3-carboxylic acid]",97,
"Cc1cc(C(F)(F)F)nn1-c1nc(Nc2cc(F)cc(C#N)c2)ncc1-c1cccc(/C=C/C(=O)O)c1 [Example 1116, (E)-3-(3-(2-(3-cyano-5-fluorophenylamino)-4-(5-methyl-3-(trifluoromethyl)-1H-pyrazol-1-yl)pyrimidin-5-yl)phenyl)acrylic acid]",97,
"COc1ccc(-c2cnc(Nc3ccc(F)c(Cl)c3)nc2-n2ccc(C(F)(F)F)n2)cc1C(=O)O [Example 1074, 5-(2-(3-Chloro-4-fluorophenylamino)-4-(3-(trifluoromethyl)-1H-pyrazol-1-yl)pyrimidin-5-yl)-2-methoxybenzoic acid]",100,
"CC(C)Nc1nc(Nc2ccc(F)c(Cl)c2)ncc1-c1cncnc1 [Example 59, N^2-(3-chloro-4-fluorophenyl)-N^4-propan-2-yl-5-pyrimidin-5-ylpyrimidine-2,4-diamine]",51.8,
"Cc1cc(C(F)(F)F)nn1-c1nc(Nc2ccc(F)c(Cl)c2)ncc1-c1cncc(C(=O)NCCN2CCN(C)CC2)c1 [Example 928, 5-(2-(3-chloro-4-fluorophenylamino)-4-(5-methyl-3-(trifluoromethyl)-1H-pyrazol-1-yl)pyrimidin-5-yl)-N-(2-(4-methylpiperazin-1-yl)ethyl)nicotinamide]",85,
"Fc1ccc(Nc2ncc(-c3cncnc3)c(-n3nnc4ncccc43)n2)cc1Cl [Example 88, N-(3-chloro-4-fluorophenyl)-4-(1H-[1,2,3]triazolo[4,5-b]pyridin-1-yl)-5,5′-bipyrimidin-2-amine]",102,
"CONC(=O)/C=C/c1cccc(-c2cnc(Nc3cc(OC)cc(C(F)(F)F)c3)nc2NCCc2ccncc2)c1 [Example 374, (E)-N-methoxy-3-(3-(2-(3-methoxy-5-(trifluoromethyl)phenylamino)-4-(2-(pyridin-4-yl)ethylamino)pyrimidin-5-yl)phenyl)acrylamide]",81.2,
"CCOC(=O)c1cc2cc(-c3cnc(Nc4ccc(F)c(Cl)c4)nc3N3CCOCC3)ccc2[nH]1 [Example 1054, Ethyl 5-(2-(3-chloro-4-fluorophenylamino)-4-morpholinopyrimidin-5-yl)-1H-indole-2-carboxylate]",0,
